Earlier results on 1 compound are cited in patent US7371422B2, “Cereal grain kernels fortified with iron and calcium” (The Procter & Gamble Company, priority 2003, dated 2008).

The conditions of this series: in adult college students (Bovell-Benjamin et al. 1999); relative to ferrous sulfate.

Turning to `NCC(=O)[O-].NCC(=O)[O-].[Fe+2]` [Ferrous bis-glycinate, ferrous bis-glycinate], the “absorbed ... times better than ferrous sulfate” value is 4.7 times.
